Assay results published in patent publication US20140358576A1, “SYSTEM AND METHOD FOR SURVEILLANCE AND EVALUATION OF SAFETY RISKS ASSOCIATED WITH MEDICAL INTERVENTIONS” (Adverse Events, Inc., priority 2013, published 2014).
Where a name gives a salt, the structure may show the parent alone. Numbered stars: 1 amine (or outer) side, 2 acyl side, 3 side chain; on linkers, the order of the positions; unused ones are H or OH. Bridge positions count the residues as written; N and C are the ends. Square brackets hold non-standard residues; d marks the D form. Peptide text beside a SMILES is read from it. * marks the point of attachment. hTyr(3S-OH,4S-OH,3'-OSO3H) = N[C@H](C(=O)O)[C@H](O)[C@@H](O)c1ccc(O)c(OS(=O)(=O)O)c1; Orn(4R-OH,5R-OH) = O=C([C@H](C[C@@H](O)[C@@H](O)N[*:3])N[*:1])[*:2]; Pro(3S-OH,4S-Me) = C[C@H]1CN[C@H](C(=O)O)[C@H]1O; X1 = CCCCCOc1ccc(-c2cc(-c3ccc(C(=O)*)cc3)no2)cc1; Gln(3R-OH) = NC(=O)C[C@@H](O)[C@H](N)C(=O)O; Hyp = O=C(O)[C@@H]1C[C@@H](O)CN1

details: human

| Structure (SMILES) | Adverse Event Seriousness | Outcome | ROR | RxScore |
| --- | --- | --- | --- | --- |
| CCCCCN(C)CCC(O)(P(=O)(O)O)P(=O)(O)O [ibandronate sodium] | 10.42 | 13.02 | 3.13 | 45.79 |
| Nc1nnc(-c2cccc(Cl)c2Cl)c(N)n1 [lamotrigine] | 8.89 | 10.41 | 3.57 | 42.04 |
| CC(=O)O[C@]1(C(C)=O)CC[C@H]2[C@@H]3C[C@H](C)C4=CC(=O)CC[C@]4(C)[C@H]3CC[C@@]21C [medroxyprogesterone acetate] | 19.89 |  | 12.89 |  |
| CN[C@@H](C)Cc1ccccc1 [methamphetamine hydrochloride] | 15.73 | 20.20 | 12.29 | 78.80 |
| COC(=O)C(c1ccccc1)C1CCCCN1 (stereo not shown) [methylphenidate] |  |  | 13.69 |  |
| CCCCCOc1ccc(-c2cc(-c3ccc(C(=O)N[C@H]4C[C@@H](O)[C@@H](O)NC(=O)[C@@H]5[C@@H](O)[C@@H](C)CN5C(=O)[C@H]([C@H](O)CC(N)=O)NC(=O)[C@H]([C@H](O)[C@@H](O)c5ccc(O)c(OS(=O)(=O)O)c5)NC(=O)[C@@H]5C[C@@H](O)CN5C(=O)[C@H]([C@@H](C)O)NC4=O)cc3)no2)cc1 [micafungin sodium] (X1-[Orn(4R-OH,5R-OH)]T[Hyp][hTyr(3S-OH,4S-OH,3'-OSO3H)][Gln(3R-OH)][Pro(3S-OH,4S-Me)]; lactam 1-C) |  | 22.48 |  |  |
| O=C1CCCC(=O)C1C(=O)c1ccc(C(F)(F)F)cc1[N+](=O)[O-] [nitisinone] | 15.20 | 23.09 | 5.32 | 74.78 |
| [N]=O [nitric oxide] | 19.58 |  |  |  |
| NCCC(O)(P(=O)(O)O)P(=O)(O)O [pamidronate disodium] | 12.75 | 6.73 | 11.49 | 51.86 |
| N#Cc1ccccc1-c1cc(-c2ccccn2)cn(-c2ccccc2)c1=O [perampanel] | 7.92 | 14.67 | 3.53 | 47.40 |
| CC(C)(N)Cc1ccccc1 [phentermine] |  |  | 12.22 |  |
| O=C1NC(=O)C(c2ccccc2)(c2ccccc2)N1 [phenytoin sodium] | 8.38 | 12.65 | 5.12 | 44.47 |
| Nc1cccc2c1C(=O)N(C1CCC(=O)NC1=O)C2=O (stereo not shown) [pomalidomide] |  | 25.31 |  |  |
| CC(C)C[C@H](CN)CC(=O)O [pregabalin] | 7.13 | 8.25 | 2.21 | 36.30 |
| CCC1(c2ccccc2)C(=O)NCNC1=O [primidone] | 8.70 | 10.86 | 3.59 | 42.07 |
| C=C[C@]1(C)C[C@@H](OC(=O)CS[C@@H]2C[C@H]3CC[C@@H](C2)N3C)[C@]2(C)[C@H](C)CC[C@]3(CCC(=O)[C@H]32)[C@@H](C)[C@@H]1O [retapamulin] |  |  | 12.35 |  |
| CN1C(=O)C(O)N=C(c2ccccc2)c2cc(Cl)ccc21 (stereo not shown) [temazepam] | 12.79 | 22.08 | 5.17 | 72.69 |
| O=C1CCC(N2C(=O)c3ccccc3C2=O)C(=O)N1 (stereo not shown) [thalidomide] | 17.30 | 22.64 |  |  |
| Cc1ccsc1C(=CCCN1CCC[C@@H](C(=O)O)C1)c1sccc1C [tiagabine hydrochloride] | 10.82 | 12.04 | 6.41 | 48.70 |
| CC1(C)O[C@@H]2[C@@H](CO[C@@]3(COS(N)(=O)=O)OC(C)(C)O[C@@H]23)O1 [topiramate] | 11.28 | 11.96 | 4.29 | 47.54 |
| CCCC(CCC)C(=O)[O-].[Na+] [valproate sodium] | 10.26 | 13.09 | 5.64 | 48.83 |
| CCCC(CCC)C(=O)O [valproic acid] | 12.54 | 16.41 | 5.34 | 54.78 |
| C=CC(N)CCC(=O)O (stereo not shown) [vigabatrin] | 13.32 | 13.81 | 4.80 | 51.42 |
| O=P(O)(O)C(O)(Cn1ccnc1)P(=O)(O)O [zoledronic acid (Reclast), zoledronic acid] | 12.33 | 16.89 | 3.53 | 53.23 |
| O=P(O)(O)C(O)(Cn1ccnc1)P(=O)(O)O [zoledronic acid (Zometa), zoledronic acid] | 14.61 | 7.55 | 10.08 | 53.50 |
| NS(=O)(=O)Cc1noc2ccccc12 [zonisamide] | 11.03 | 13.71 | 4.73 | 49.83 |
